The NIST ThermoML archive (doi:10.1021/je700029q)
Where “and” joins values, the source holds several entries; their conditions need not be identical. Identical values can stand only once.

What was measured:
[1] = 101 kPa, Liquid
[2] = refractive index (Na D-line) (dimensionless); conditions: 298.15 K; 101.33 kPa; Liquid
[3] = xn = mol fraction of the nth substance listed; conditions: 101 kPa, Liquid
[4] = refractive index (Na D-line) (dimensionless); xn = mol fraction of the nth substance listed; conditions: 298.15 K, 101 kPa, Liquid

CCOS(=O)(=O)[O-].CCn1cc[n+](C)c1 [1-ethyl-3-methylimidazolium ethyl sulfate]
[1]
Conditions | mass density [kg/m3] | speed of sound | viscosity [mPa·s]
298.15 K | 1237.6 | 1679 m/s | 97.58
313.15 K | 1227.5 | 1641 m/s and 1642 m/s and 1643 m/s | 50.01
328.15 K | 1217.5 | 1605 m/s | 29.18

Conditions | refractive index
[2] | 1.4794

CCOS(=O)(=O)[O-].CCn1cc[n+](C)c1 [1-ethyl-3-methylimidazolium ethyl sulfate] + CC(C)O
[3]
Conditions | mass density, 298.15 K [kg/m3] | mass density, 313.15 K [kg/m3] | mass density, 328.15 K [kg/m3] | speed of sound, 298.15 K [m/s] | speed of sound, 313.15 K [m/s] | speed of sound, 328.15 K [m/s] | viscosity, 298.15 K [mPa·s] | viscosity, 313.15 K [mPa·s] | viscosity, 328.15 K [mPa·s]
x2 = 0 | 1237.6 | 1227.5 | 1217.5 | 1679 | 1643 | 1605 | 97.58 | 50.01 | 29.18
x2 = 0.1228 | 1214.3 | 1204.4 | 1194.5 | 1644 | 1608 | 1569 | 69.71 | 37.79 | 22.97
x2 = 0.2066 | 1196.4 | 1186.4 | 1176.3 | 1611 | 1576 | 1537 | 53.67 | 30.34 | 18.93
x2 = 0.309 | 1170.9 | 1160.9 | 1150.7 | 1570 | 1534 | 1494 | 40.1 | 23.56 | 15.2
x2 = 0.399 | 1144.9 | 1134.7 | 1124.3 | 1529 | 1491 | 1451 | 29.79 | 18.23 | 12.1
x2 = 0.4977 | 1111.8 | 1101.3 | 1090.7 | 1475 | 1439 | 1399 | 21.14 | 13.41 | 9.184
x2 = 0.6341 | 1054.2 | 1043.5 | 1032.6 | 1399 | 1360 | 1318 | 12.4 | 8.274 | 5.878
x2 = 0.7223 | 1008.5 | 997.4 | 986.2 | 1342 | 1302 | 1259 | 8.462 | 5.753 | 4.15
x2 = 0.8551 | 920.2 | 908.6 | 896.6 | 1251 | 1207 | 1161 | 4.475 | 3.081 | 2.225
x2 = 0.9706 | 814.1 | 801.7 | 788.5 | 1164 | 1113 | 1063 | 2.499 | 1.658 | 1.147

[4]
Conditions | refractive index
x2 = 0 | 1.4794
x2 = 0.1228 | 1.47434
x2 = 0.2066 | 1.47057
x2 = 0.309 | 1.46502
x2 = 0.399 | 1.45926
x2 = 0.4977 | 1.45177
x2 = 0.6341 | 1.43881
x2 = 0.7223 | 1.42818
x2 = 0.8551 | 1.40784
x2 = 0.9706 | 1.38306

CCOS(=O)(=O)[O-].CCn1cc[n+](C)c1 [1-ethyl-3-methylimidazolium ethyl sulfate] + CCCO
[3]
Conditions | mass density, 298.15 K [kg/m3] | mass density, 313.15 K [kg/m3] | mass density, 328.15 K [kg/m3] | speed of sound, 298.15 K [m/s] | speed of sound, 313.15 K [m/s] | speed of sound, 328.15 K [m/s] | viscosity, 298.15 K [mPa·s] | viscosity, 313.15 K [mPa·s] | viscosity, 328.15 K [mPa·s]
x2 = 0 | 1237.6 | 1227.5 | 1217.5 | 1679 | 1642 | 1605 | 97.58 | 50.01 | 29.18
x2 = 0.1619 | 1208.1 | 1197.9 | 1187.6 | 1637 | 1600 | 1565 | 60.85 | 33.73 | 20.84
x2 = 0.2104 | 1197.9 | 1187.6 | 1177.3 | 1620 | 1584 | 1548 | 52.11 | 29.56 | 18.59
x2 = 0.336 | 1167.4 | 1157.1 | 1146.7 | 1574 | 1537 | 1501 | 34.41 | 20.72 | 13.61
x2 = 0.5159 | 1111.6 | 1100.8 | 1090.2 | 1492 | 1456 | 1419 | 18.01 | 11.73 | 8.159
x2 = 0.7298 | 1015.5 | 1004.4 | 993.2 | 1382 | 1340 | 1300 | 7.296 | 5.125 | 3.774
x2 = 0.8046 | 970 | 958.6 | 947.2 | 1337 | 1294 | 1252 | 5.491 | 3.918 | 2.918
x2 = 0.8894 | 907.7 | 895.9 | 884 | 1284 | 1238 | 1193 | 3.577 | 2.58 | 1.923
x2 = 0.9401 | 862.5 | 850.6 | 838.5 | 1249 | 1201 | 1154 | 2.776 | 1.997 | 1.482
x2 = 0.9727 | 829.8 | 817.8 | 805.5 | 1227 | 1178 | 1130 | 2.419 | 1.729 | 1.272

[4]
Conditions | refractive index
x2 = 0 | 1.4794
x2 = 0.1619 | 1.47317
x2 = 0.2104 | 1.47102
x2 = 0.336 | 1.46449
x2 = 0.5159 | 1.4524
x2 = 0.7298 | 1.43139
x2 = 0.8046 | 1.42139
x2 = 0.8894 | 1.40743
x2 = 0.9401 | 1.39739
x2 = 0.9727 | 1.39003

CCOS(=O)(=O)[O-].CCn1cc[n+](C)c1 [1-ethyl-3-methylimidazolium ethyl sulfate] + CO
[3]
Conditions | mass density, 298.15 K [kg/m3] | mass density, 313.15 K [kg/m3] | mass density, 328.15 K [kg/m3] | speed of sound, 298.15 K [m/s] | speed of sound, 313.15 K [m/s] | speed of sound, 328.15 K [m/s] | viscosity, 298.15 K [mPa·s] | viscosity, 313.15 K [mPa·s] | viscosity, 328.15 K [mPa·s]
x2 = 0 | 1237.6 | 1227.5 | 1217.5 | 1679 | 1641 | 1605 | 97.58 | 50.01 | 29.18
x2 = 0.1346 | 1224.2 | 1214.1 | 1204 | 1663 | 1627 | 1588 | 60.93 | 33.83 | 20.92
x2 = 0.2595 | 1209.1 | 1199 | 1188.6 | 1640 | 1603 | 1564 | 39.32 | 23.4 | 15.25
x2 = 0.3267 | 1199.4 | 1189.1 | 1178.8 | 1624 | 1587 | 1549 | 30.59 | 18.94 | 12.65
x2 = 0.4741 | 1171.9 | 1161.3 | 1150.7 | 1583 | 1546 | 1506 | 16.38 | 11.02 | 7.887
x2 = 0.5701 | 1146.8 | 1135.9 | 1125.1 | 1547 | 1509 | 1469 | 10.12 | 7.173 | 5.387
x2 = 0.6664 | 1113.9 | 1102.9 | 1091.8 | 1500 | 1461 | 1420 | 6.45 | 4.776 | 3.661
x2 = 0.7757 | 1059 | 1047.5 | 1035.9 | 1423 | 1382 | 1340 | 3.232 | 2.508 | 2.02
x2 = 0.8294 | 1021.1 | 1009.2 | 997.3 | 1371 | 1330 | 1287 | 2.351 | 1.86 | 1.501
x2 = 0.923 | 924.9 | 912.2 | 899.3 | 1251 | 1207 | 1162 | 1.639 | 0.901 | 0.666
x2 = 0.9626 | 863.7 | 850.4 | 836.9 | 1187 | 1137 | 1090 | 1.263 | 0.66 | 0.551
x2 = 0.9917 | 806 | 792.2 | 777.7 | 1123 | 1076 | 1029 | 1.039 | 0.516 | 0.43

[4]
Conditions | refractive index
x2 = 0 | 1.4794
x2 = 0.1346 | 1.47491
x2 = 0.2595 | 1.47006
x2 = 0.3267 | 1.46675
x2 = 0.4741 | 1.45742
x2 = 0.5701 | 1.44913
x2 = 0.6664 | 1.43808
x2 = 0.7757 | 1.42043
x2 = 0.8294 | 1.4078
x2 = 0.923 | 1.37377
x2 = 0.9626 | 1.35299
x2 = 0.9917 | 1.33319

CO [methanol]
[1]
Conditions | mass density [kg/m3] | speed of sound [m/s] | viscosity [mPa·s]
298.15 K | 786.4 | 1103 | 0.546
313.15 K | 772.3 | 1055 | 0.446
328.15 K | 757.8 | 1006 | 0.369

Conditions | refractive index
[2] | 1.32687

CO [methanol] + CCOS(=O)(=O)[O-].CCn1cc[n+](C)c1
[3], x1 = 1
Conditions | mass density [kg/m3] | speed of sound [m/s] | viscosity [mPa·s]
298.15 K | 786.4 | 1103 | 0.546
313.15 K | 772.3 | 1055 | 0.446
328.15 K | 757.8 | 1006 | 0.369

Conditions | refractive index
[4], x1 = 1 | 1.32687

CCCO [propan-1-ol]
[1]
Conditions | mass density [kg/m3] | speed of sound [m/s] | viscosity [mPa·s]
298.15 K | 799.6 | 1207 | 2.017
313.15 K | 787.4 | 1155 | 1.43
328.15 K | 774.8 | 1105 | 1.041

Conditions | refractive index
[2] | 1.3831

CCCO [propan-1-ol] + CCOS(=O)(=O)[O-].CCn1cc[n+](C)c1
[3], x1 = 1
Conditions | mass density [kg/m3] | speed of sound [m/s] | viscosity [mPa·s]
298.15 K | 799.6 | 1207 | 2.017
313.15 K | 787.4 | 1155 | 1.43
328.15 K | 774.8 | 1105 | 1.041

Conditions | refractive index
[4], x1 = 1 | 1.3831

CC(C)O [propan-2-ol]
[1]
Conditions | mass density [kg/m3] | speed of sound [m/s] | viscosity [mPa·s]
298.15 K | 780.7 | 1138 | 2.082
313.15 K | 767.8 | 1085 | 1.354
328.15 K | 753.9 | 1031 | 0.919

Conditions | refractive index
[2] | 1.37495

CC(C)O [propan-2-ol] + CCOS(=O)(=O)[O-].CCn1cc[n+](C)c1
[3], x1 = 1
Conditions | mass density [kg/m3] | speed of sound [m/s] | viscosity [mPa·s]
298.15 K | 780.7 | 1138 | 2.082
313.15 K | 767.8 | 1085 | 1.354
328.15 K | 753.9 | 1031 | 0.919

Conditions | refractive index
[4], x1 = 1 | 1.37495
